Results reported in US20170260126A1, “SQUALENE COMPOUNDS AS MODULATORS OF LDL-RECEPTOR EXPRESSION” (OXFORD UNIVERSITY INNOVATION LIMITED, priority 2014, published 2017).

Experiments:
[1] = tested on: CHO pLDLR-Luciferase cells; assay: Luciferase assay (LDLR promoter-luciferase reporter in CHO cells); assay type: cell-based, Chinese Hamster; design: Emax: unit not given here; conditions: 48 hours after treatment; for EC50: Cricetulus griseus
Description: Chinese Hamster Ovary (CHO) cells cultivated in 2×75 […] conical flasks had their media removed and washed in 5 mL of PBS before 2 mL of Trypsin was added. The cells were swirled for a minute, before being placed in the 37° C. incubator for 5 min. The conical flasks were tapped to remove cells from the bottom, and aspirated out into 2×13 mL of Ham F-12 media containing 10% FBS and 1% L-Glutamine. The cells were then spun down at 1000 rpm for 5 min. The media was aspirated off, and the pellet from each of the two flasks was resuspended in 5 mL of media. The cells were counted, plated into a 24-well plate to give 1.5×10^5 cells/well in 500 μL of media, and placed in the 37° C. incubator. 2 mL of the remaining cells was added to 38 mL of media, plated 20 mL each into 2×75 cm^2 conical flasks, and placed in the 37° C. incubator.
After 24 h, the media was aspirated out and replaced with 500 μL Lipoprotein Deficient Serum (LPDS) media. The plate was then returned to the incubator for a further 24 h.
Following this incubation, the compound to be tested was dissolved in DMSO to give a concentration of 1 mg/mL. An appropriate amount of this solution was then added to FPS media to give 5 mL at a concentration of 10 μM. Serial dilution then gave the other required concentrations, to give testing concentrations of 0.1 nM, 1 nM, 10 nM, 30 nM, 100 nM, 1 μM and 10 μM. A 1 μM compound 49 positive control was also prepared from a stock solution in DMSO, and 0.1% DMSO control was also prepared as a negative control. Each well was then treated with 500 μL of each solution, according to the plate map shown below, and the plates were placed in the incubator.
48 hours after treatment, the cell media was aspirated and cells were washed with 500 μL of PBS. 100 μL of luciferase lysis buffer (12.5 mL 1M TrisPO4 pH 7.8, 5 mL 0.2M CDTA solution, 50 mL glycerol, 5 mL Triton-X 100, 427.5 mL H2O) was added to each sample; samples were shaken for 20 min at 4° C. before being pipetted up and down, then the plate was spun at 4500 rpm for 5 min. 75 μL of lysate was pippetted into a 96-well plate. The plate was then run on a Dynex Technologies MLX 96 Well Plate Luminometer using revalation software. 100 µL of luciferase assay buffer solution and 50 μL of Luciferin solution (200 μL Luciferin 10X, 1800 μL H2O) was dispensed each time. Response was recorded in Relative Light Units (RLUs), normalised to standards from a bicinchoninic acid (BCA) assay.
Prepared using 3 mL luciferase assay buffer (7.5 mL 1M MgSO4, 7.5 mL 1M TrisPO4 pH 7.8 buffer, 20 mL 0.1M EGTA pH 7.8, 465 mL H2O), added to 60 μL of 100 mM ATP and 6 μL of 1 M DTT solution.

Squalene Synthase = molecular target: T1, Squalene Synthase (Homo sapiens, UniProt P37268); assay: Squalene Synthase activity assay in human liver microsomes with [1-3H]FPP; assay type: biochemical; conditions: FIG. 1b
T1 construct: 12 μg human liver microsomes; from tissue; host or cells: human liver microsomes
T1 sequence (P37268 1-417): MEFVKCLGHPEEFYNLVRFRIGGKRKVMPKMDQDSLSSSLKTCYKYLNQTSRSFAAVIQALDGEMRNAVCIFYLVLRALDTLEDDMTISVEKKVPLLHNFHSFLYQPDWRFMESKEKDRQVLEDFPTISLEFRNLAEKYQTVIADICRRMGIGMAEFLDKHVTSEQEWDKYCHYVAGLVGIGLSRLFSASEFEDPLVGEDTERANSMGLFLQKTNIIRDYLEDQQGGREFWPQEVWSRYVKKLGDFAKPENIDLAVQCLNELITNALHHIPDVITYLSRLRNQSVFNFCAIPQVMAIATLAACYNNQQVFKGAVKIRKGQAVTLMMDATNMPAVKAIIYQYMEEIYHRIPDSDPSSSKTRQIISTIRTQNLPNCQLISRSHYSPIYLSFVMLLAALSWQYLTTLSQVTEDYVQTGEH
Description: Squalene Synthase activity assays were performed in 1 mL reactions containing 50 mM phosphate buffer (pH 7.4, 10 mM MgCl2), 12 μg human liver microsomes, [1-^3H]FPP (0.045 Ci/mmol) and 0.5 mM NADPH. Enzyme and inhibitors were incubated for 10 minutes at 37° C. Substrate was then added and reaction was incubated for 10 min at 37° C. Reaction was stopped by adding 1 mL of 15% KOH in ethanol and incubated at 65° C. for 30 minutes. 5 mL of petroleum ether was added and reaction was shaken for 10 minutes at room temperature. The lower aqueous phase was frozen and the upper organic phase transferred to fresh glass tubes containing 2 mL distilled water. 1.5 mL of the organic phase was transferred to a scintillation vial containing liquid scintillation fluid, and radioactivity was quantitated using a Beckman liquid scintillation counter. Data was analyzed using Prism Graphpad software.
As a representative example, compound 40 (Example 15; JM-086) was tested for squalene synthase inhibitory properties alongside compound 15a (Example 1), and the known squalene synthase inhibitor, YM-53601, as a positive control.

[2] = tested on: CHO pLDLR-Luciferase cells; assay: Combination therapy experiments, luciferase compound screen with simvastatin; assay type: cell-based, Chinese Hamster; conditions: Cricetulus griseus; single agent, CHO-pLDLR-Luc, FIG. 3a/3b; read-out: EC50, increase in levels of luciferase
Description: As described above, CHO WT cells transfected with pLDLR-Luc (CHO-pLDLR-Luc) were grown in HamsF-12(Sigma N4888) medium supplemented with 10% fetal bovine serum (FBS), 1% penicillin/streptomycin, 1% L-glutamine, in a 5% CO2 incubator at 37° C. CHO-pLDLR-Luc were seeded in 24-well plates at 1.5×10^5 per well. After 24h cells were changed to HamsF-12(Sigma N4888) supplemented with 10% lipoprotein deficient serum (LDPS), 1% penicillin/streptomycin, 1% L-glutamine. Compounds and simvastatin (Sigma S6196) dissolved in DMSO and Cholesterol(Sigma C8667) and 25-Hydroxycholesterol(Sigma H1015) dissolved in ethanol were added 24 h after serum starvation.
Simvastatin and compound 40 (Example 15; JM-086) were added together. The compounds were added at the exact same time, with the EC50 of either compound 40 (JM-086) or Simvastatin added into the media containing increasing doses of either compound 40 (JM-086) or Simvastatin then being added to the CHO pLDLR-Luciferase cells.

Row | squalene synthase inhibition (Squalene Synthase) | melting point [°C] | Structure (SMILES) | Emax [1] | EC50 [1] [µM] | EC50 [2] [µM]
1 | – | 128.8 to 129.9 | CN(C)CCCOc1ccc(/C=C/c2ccc(F)cc2)cc1 [Compound 46a, (E)-3-(4-(4-fluorostyryl)phenoxy)-N,N-dimethylpropan-1-amine] | 24 | 2 | –
2 | – | 56.2 to 58.6 | CN(C)CCCOc1ccc(/C=C/c2cccc(F)c2)cc1 [Compound 46b, (E)-3-(4-(3-fluorostyryl)phenoxy)-N,N-dimethylpropan-1-amine] | 9 | 1.5 | –
3 | – | 85.2 to 85.9 | CN(C)CCCOc1ccc(/C=C/c2ccc([N+](=O)[O-])cc2)cc1 [Compound 47a, (E)-N,N-dimethyl-3-(4-(4-nitrostyryl)phenoxy)propan-1-amine] | 39 | 3 | –
4 | – | 51.9 to 57.1 | CN(C)CCCOc1ccc(/C=C/c2ccccc2[N+](=O)[O-])cc1 [Compound 47c, (E)-N,N-dimethyl-3-(4-(2-nitrostyryl)phenoxy)propan-1-amine] | 5 | 3 | –

Second part, the compound before the results:

Row | Structure (SMILES) | squalene synthase inhibition (Squalene Synthase) | melting point [°C] | Emax [1] | EC50 [1] [µM] | EC50 [2] [µM]
5 | CN(C)CCCOc1ccc(/C=C/c2ccccc2)cc1 [Compound 15a, (E)-N,N-dimethyl-3-(4-styrylphenoxy)propan-1-amine] | dose-dependent activity | 75 to 77 | 5 | 0.039 | –
6 | Oc1ccc(/C=C/c2ccccc2)cc1 [Compound 32, (E)-4-styrylphenol] | – | – | 34 | 3 | –
7 | CC(C)CCCOc1ccc(/C=C/c2ccccc2)cc1 [Compound 39, (E)-1-((4-methylpentyl)oxy)-4-styrylbenzene] | – | 97 to 98 | 8 | 1 | –
8 | OCCCOc1ccc(/C=C/c2ccccc2)cc1 [Compound 40, (E)-3-(4-styrylphenoxy)propan-1-ol] | dose-dependent activity | – | 32 | 0.035 | 0.0315
9 | COCCCOc1ccc(/C=C/c2ccccc2)cc1 [Compound 41, (E)-1-(3-methoxypropoxy)-4-styrylbenzene] | – | 77.8 to 81 | 44 | 1.5 | –
10 | COc1ccc(/C=C/c2ccc(OCCCN(C)C)cc2)cc1 [Compound 44a, (E)-3-(4-(4-methoxystyryl)phenoxy)-N,N-dimethylpropan-1-amine] | – | 138 to 140 | 30 | 0.26 | –
11 | COc1cccc(/C=C/c2ccc(OCCCN(C)C)cc2)c1 [Compound 44b, (E)-3-(4-(3-methoxystyryl)phenoxy)-N,N-dimethylpropan-1-amine] | – | 28 to 32 | 9 | 2.5 | –
12 | COc1ccccc1/C=C/c1ccc(OCCCN(C)C)cc1 [Compound 44c, (E)-3-(4-(2-methoxystyryl)phenoxy)-N,N-dimethylpropan-1-amine] | – | 177.6 to 180.9 | 8 | 0.31 | –
13 | CN(C)CCCOc1ccc(/C=C/c2ccccc2)cc1F [Compound 62, (E)-3-(2-fluoro-4-styrylphenoxy)-N,N-dimethylpropan-1-amine] | – | 68.2 to 72.6 | 15 | 3 | –
14 | COc1ccc(/C=C/c2ccccc2)cc1 [Compound 65, (E)-1-methoxy-4-styrylbenzene] | – | – | 6 | 0.05 | –
15 | CNCCCOc1ccc(/C=C/c2ccccc2)cc1 [Compound 69, (E)-N-methyl-3-(4-styrylphenoxy)propan-1-amine] | – | 84.2 to 87.7 | 8 | 0.32 | –
16 | CCC(C)(C)C(=O)O[C@H]1C[C@@H](C)C=C2C=C[C@H](C)[C@H](CC[C@@H]3C[C@@H](O)CC(=O)O3)[C@H]21 [Simvastatin, reference compound] | – | – | – | – | 0.128
